From publication PMC5860131, “Identification of natural products as novel ligands for the human 5-HT2C receptor” (Biophysics Reports, 2018)
pEC50: −log10 of the molar value.

Assays:
[1] = molecular target: T1, 5-HT2C receptor (Homo sapiens, UniProt P28335, DEL255-298/G251D/H250E/H252N/INS299[…]/L248D/M247A/M300L/T253W); format: binding; conditions: CPM assay, comparing to apo-protein
T1 construct: the N- and C-terminals were truncated by 39 and 65 residues, respectively; FLAG (N); PreScission protease site + 10× His (C); made in house; host or cells: Spodoptera frugiperda (Sf9), baculovirus
T1 sequence (P28335 with tags, fused parts or gaps with the stated changes limits assumed): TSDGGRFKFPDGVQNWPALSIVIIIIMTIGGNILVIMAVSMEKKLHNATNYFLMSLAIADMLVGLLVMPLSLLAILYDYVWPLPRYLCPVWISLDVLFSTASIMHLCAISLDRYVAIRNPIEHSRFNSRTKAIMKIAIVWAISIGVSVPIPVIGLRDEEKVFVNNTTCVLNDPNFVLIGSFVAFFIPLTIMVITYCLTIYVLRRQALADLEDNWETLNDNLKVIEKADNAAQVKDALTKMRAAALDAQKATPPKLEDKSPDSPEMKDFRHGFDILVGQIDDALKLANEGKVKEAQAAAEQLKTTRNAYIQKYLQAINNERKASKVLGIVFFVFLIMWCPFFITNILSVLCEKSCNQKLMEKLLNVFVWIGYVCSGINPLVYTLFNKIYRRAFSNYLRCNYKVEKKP

[2] = molecular target: T1, 5-HT2C receptor; format: binding
[3] = molecular target: T2, 5-HT2A receptor (Homo sapiens, UniProt P28223); assay: Ca2+ mobilization assay (Fluo-4, FLIPR), HEK 293T cells stably transfected with 5-HT2A; format: cell-based; conditions: agonist mode, up to 30,000 nmol/L
T2 construct: expressed in transfected cells; host or cells: HEK 293T, stably transfected
T2 sequence (P28223 whole entry): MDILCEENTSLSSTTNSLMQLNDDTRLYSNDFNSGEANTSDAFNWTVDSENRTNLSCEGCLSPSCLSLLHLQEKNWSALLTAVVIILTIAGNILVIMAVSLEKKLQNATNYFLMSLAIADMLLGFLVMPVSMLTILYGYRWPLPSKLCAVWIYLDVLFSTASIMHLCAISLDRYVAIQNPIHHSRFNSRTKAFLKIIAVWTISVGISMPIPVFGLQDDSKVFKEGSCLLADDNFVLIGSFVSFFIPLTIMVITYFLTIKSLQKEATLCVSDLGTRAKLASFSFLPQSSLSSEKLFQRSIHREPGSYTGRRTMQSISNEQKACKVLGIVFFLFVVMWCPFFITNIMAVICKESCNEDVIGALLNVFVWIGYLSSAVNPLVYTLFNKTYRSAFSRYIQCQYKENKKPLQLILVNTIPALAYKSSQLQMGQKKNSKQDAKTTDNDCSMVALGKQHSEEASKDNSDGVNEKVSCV
Source text: (§1) The 5-HT2C receptor mainly couples to Gαq proteins. The activated 5-HT2C receptor transmits the signals from the extracellular to the intercellular side using DAG/IP3 (diacyl glycerol/inositol 1,4,5-trisphosphate) as its second massagers (Hannon and Hoyer [2008]). IP3 stimulates the endoplasmic reticulum to release calcium ions into the cytoplasm, which causes the increase of calcium concentration in cytosol. Therefore, calcium mobilization assay is commonly applied to understand how unknown small molecule ligands of 5-HT2C receptor modulate cellular signal transductions. In this case, Fluo-4 Direct dye was used as a fluorescence indicator to detect calcium flux in G protein-coupled receptor expressed cells. The fold of maximum response over average of basal reading is plotted against compound concentration to determine the potency of the compounds (Fig. 3). […]. […] After the dye loaded, cells were placed in a FLIPR^TETRA fluorescence imaging plate reader (Molecular Devices); drug dilutions, prepared at 3× final concentration in FLIPR buffer and aliquotted into 384-well plates, were also added to the FLIPR^TETRA. The fluidics module and plate reader of the FLIPR^TETRA were programmed to read baseline fluorescence for 10 s (1 read/s), then to add 10 μl of drug/well and to read for 6 min (1 read/s). […]

[4] = molecular target: T3, 5-HT2B receptor (Homo sapiens, UniProt P41595); assay: Ca2+ mobilization assay (Fluo-4, FLIPR), HEK 293T cells stably transfected with 5-HT2B; format: cell-based; conditions: agonist mode, up to 30,000 nmol/L
T3 construct: expressed in transfected cells; host or cells: HEK 293T, stably transfected
T3 sequence (P41595 whole entry): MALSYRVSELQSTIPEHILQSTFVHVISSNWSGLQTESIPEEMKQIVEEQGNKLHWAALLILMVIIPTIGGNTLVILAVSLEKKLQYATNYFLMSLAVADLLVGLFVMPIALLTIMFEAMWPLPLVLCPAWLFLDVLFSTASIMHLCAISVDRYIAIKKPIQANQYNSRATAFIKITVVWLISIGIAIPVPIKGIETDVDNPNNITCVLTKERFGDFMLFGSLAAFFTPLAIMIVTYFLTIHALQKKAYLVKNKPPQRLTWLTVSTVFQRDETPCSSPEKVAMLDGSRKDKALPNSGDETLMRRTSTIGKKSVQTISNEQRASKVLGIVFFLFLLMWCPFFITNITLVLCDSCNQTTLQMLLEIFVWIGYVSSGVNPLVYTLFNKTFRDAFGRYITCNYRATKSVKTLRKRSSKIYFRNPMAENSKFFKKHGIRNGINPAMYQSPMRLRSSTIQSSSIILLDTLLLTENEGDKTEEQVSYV
Source text: as §1

[5] = molecular target: T4, 5-HT2C receptor (Homo sapiens, UniProt P28335); assay: Ca2+ mobilization assay (Fluo-4, FLIPR), HEK 293T cells stably transfected with 5-HT2C; format: cell-based
T4 construct: expressed in transfected cells; host or cells: HEK 293T, stably transfected
T4 sequence (P28335 33-458): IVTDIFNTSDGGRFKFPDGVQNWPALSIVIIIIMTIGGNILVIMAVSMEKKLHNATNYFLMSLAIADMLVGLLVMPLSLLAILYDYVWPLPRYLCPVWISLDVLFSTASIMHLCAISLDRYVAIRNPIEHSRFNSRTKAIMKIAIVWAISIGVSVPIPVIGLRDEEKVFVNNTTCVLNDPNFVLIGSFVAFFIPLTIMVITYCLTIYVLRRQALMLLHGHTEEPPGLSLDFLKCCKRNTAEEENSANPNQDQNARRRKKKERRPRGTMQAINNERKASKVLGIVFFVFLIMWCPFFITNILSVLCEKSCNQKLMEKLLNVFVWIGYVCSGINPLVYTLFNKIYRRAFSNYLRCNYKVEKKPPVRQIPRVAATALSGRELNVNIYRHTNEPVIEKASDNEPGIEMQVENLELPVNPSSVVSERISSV
Source text: The 5-HT2C receptor mainly couples to Gαq proteins. The activated 5-HT2C receptor transmits the signals from the extracellular to the intercellular side using DAG/IP3 (diacyl glycerol/inositol 1,4,5-trisphosphate) as its second massagers (Hannon and Hoyer [2008]). IP3 stimulates the endoplasmic reticulum to release calcium ions into the cytoplasm, which causes the increase of calcium concentration in cytosol. Therefore, calcium mobilization assay is commonly applied to understand how unknown small molecule ligands of 5-HT2C receptor modulate cellular signal transductions. In this case, Fluo-4 Direct dye was used as a fluorescence indicator to detect calcium flux in G protein-coupled receptor expressed cells. The fold of maximum response over average of basal reading is plotted against compound concentration to determine the potency of the compounds (Fig. 3). […]. HEK 293T cells stably transfected with 5-HT2A/2B/2C receptor were seeded in 384-well plates at a density of 15,000 cells/well in DMEM containing 1% dialyzed FBS 8 h before the calcium flux assay. After removing medium, cells were then incubated (20 μl/well) for 1 h at 37 °C with Fluo-4 Direct dye (Invitrogen) reconstituted in FLIPR buffer (1× HBSS, 2.5 mmol/L probenecid, and 20 mmol/L HEPES, pH 7.4). After the dye loaded, cells were placed in a FLIPR^TETRA fluorescence imaging plate reader (Molecular Devices); drug dilutions, prepared at 3× final concentration in FLIPR buffer and aliquotted into 384-well plates, were also added to the FLIPR^TETRA. The fluidics module and plate reader of the FLIPR^TETRA were programmed to read baseline fluorescence for 10 s (1 read/s), then to add 10 μl of drug/well and to read for 6 min (1 read/s). Fluorescence in each well was normalized to the average of the first 10 reads (i.e., baseline fluorescence). Then, the maximum-fold increase, which occurred within 60 s after drug addition, over baseline fluorescence elicited by vehicle or drug was determined. […]

[6] = system: cortical pyramidal neurons; assay: Whole-cell patch clamp recording of spontaneous synaptic current (SPSC) in brain slices; format: cell-based; conditions: 10 μmol/L; mouse brain slices
Method: 5-HT receptors play important roles in central and peripheral nervous systems. Malfunctions of these receptors have been linked to many neural disorders such as depression and psychosis. The effect of (–)-crebanine on changes in 5-HT induced synaptic transmission was evaluated by electrophysiological recording of mouse brain slices (Jang et al. [2012]). The spontaneous synaptic current (SPSC) of cortical pyramidal neurons was recorded in whole cell mode.
Cortical slices from ICR mouse of both genders (15–21 days) were prepared for electrophysiological recording. In brief, the animals were decapitated and brains were placed in cold sucrose artificial cerebrospinal fluid (sucrose-ASCF, in mmol/L: sucrose 213, KCl 2.5, NaH2PO4 1.25, NaHCO3 26, D-glucose 10, MgSO4 2, CaCl2 2, pH 7.4, 0–4 °C, saturated with 95% O2 and 5% CO2). The brains were cut into 280 or 300 μm slices with a vibratome (Leica VT1200S, Germany); slices were then incubated with ACSF (in mmol/L: NaCl 126, KCl 2.5, NaH2PO4 1.25, NaHCO3 26, D-glucose 25, MgSO4 2, CaCl2 2, pH 7.4, saturated with 95% O2 and 5% CO2) at room temperature for 1 h.
A whole-cell patch clamp technique was used. […] Activity of cortical pyramidal neurons was recorded using an amplifier (HEKA EPC 10 USB, Germany) in the voltage clamp mode. […]

## COc1cc2cc3c4c(cc(OC)c(OC)c4c2cc1OC)CCN3C [Compound 4, didehydroglaucine]
[1]
  thermal shift value (∆Tm): < 1.00 °C

## COc1cc2c(cc1OC)-c1c3c(cc4c1[C@@H](C2)N(C)CC4)OCO3 [Compound 2, (–)-dicentrine]
[1]
  thermal shift value (∆Tm): < 1.00 °C

## Cc1nc2sccn2c(=O)c1CCN1CCC(=C(c2ccc(F)cc2)c2ccc(F)cc2)CC1 [Ritanserin, ritanserin, reference compound]
[2]
  S/C: 8.39 ± 1.80
  affinity (in words): high nmol/L range

## COc1ccc2c(c1O)-c1c(OC)c(OC)cc3c1[C@H](C2)N(C)CC3 [Compound 5, (+)-isocorydine]
[3]
  receptor activation: inactive
[4]
  receptor activation: inactive
[5]
  pEC50: 5.68
[5]; HEK-293T
  Emax: 16.6%

## COc1ccc2c(c1O)-c1c(O)c(OC)cc3c1[C@H](C2)[N+](C)(C)CC3 [Compound 3, (+)-magnoflorine]
[1]
  thermal shift value (∆Tm): < 1.00 °C

## NCCc1c[nH]c2ccc(O)cc12 [Compound 5-HT, 5-hydroxytryptamine, reference compound]
[6]
  effect on SPSC: amplified
